From patent US11643416B2, “Substituted 1′,2′-dihydro-3′H-spiro[cyclohexane-1,4′-pyrimido[5′,4′:4,5]pyrrolo[2,1-c][1,2,4]triazin]-3′-ones as cyclin-dependent kinase inhibitors” (G1 Therapeutics, Inc., priority 2020, dated 2023)

Target: CDK5 (Homo sapiens (Human), UniProt Q00535)
Experiment: CDK5 kinase assay (Nanosyn, Caliper microfluidic)
Format: biochemical
Details: ATP at Km; 12-point dose-response
Experimental: Selected compounds disclosed herein were tested in kinase assays by Nanosyn (Santa Clara, Calif.) to determine their inhibitory effect on these CDKs. The assays were performed using microfluidic kinase detection technology (Caliper Assay Platform). The compounds were tested in 12-point dose-response format in singlicate at Km for ATP.

Chain of CDK5 (Q00535 whole entry): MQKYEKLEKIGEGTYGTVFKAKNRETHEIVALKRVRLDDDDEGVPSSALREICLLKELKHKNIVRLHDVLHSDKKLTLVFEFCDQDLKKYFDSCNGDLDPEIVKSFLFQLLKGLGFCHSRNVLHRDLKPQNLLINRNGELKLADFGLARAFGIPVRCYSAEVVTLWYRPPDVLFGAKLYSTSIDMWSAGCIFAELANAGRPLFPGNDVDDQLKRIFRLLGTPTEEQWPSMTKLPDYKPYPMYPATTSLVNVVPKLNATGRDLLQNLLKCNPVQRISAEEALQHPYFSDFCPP
Chain of CDK5 (Q15078 whole entry partner): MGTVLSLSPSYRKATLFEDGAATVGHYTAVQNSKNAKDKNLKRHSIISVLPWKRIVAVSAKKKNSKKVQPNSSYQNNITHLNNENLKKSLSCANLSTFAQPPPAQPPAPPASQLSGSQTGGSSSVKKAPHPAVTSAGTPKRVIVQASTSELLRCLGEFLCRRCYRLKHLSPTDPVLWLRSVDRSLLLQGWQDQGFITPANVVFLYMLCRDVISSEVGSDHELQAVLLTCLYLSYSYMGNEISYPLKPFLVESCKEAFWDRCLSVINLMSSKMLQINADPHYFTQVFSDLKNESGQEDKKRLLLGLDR

Compound	IC50 [nM]
NS(=O)(=O)c1ccc(Nc2ncc3cc4n(c3n2)C2(CCCCC2)C(=O)NC4O)cc1 (centres unmarked) [Compound 1, 4-((6′-hydroxy-8′-oxo-7′,8′-dihydro-6′H-spiro[cyclohexane-1,9′-pyrazino[1′,2′:1,5]pyrrolo[2,3-d]pyrimidin]-2'-yl)amino)benzenesulfonamide]	0.68
NS(=O)(=O)c1ccc(Nc2ncc3cc4n(c3n2)C2(CCCCC2)CC(=O)N4)cc1 [Compound 2, 4-((7′-oxo-7′,8′-dihydro-6′H-spiro[cyclohexane-1,9′-pyrrolo[1,5-a:2,3-d′]dipyrimidin]-2′-yl)amino)benzenesulfonamide]	1.4
NS(=O)(=O)c1ccc(Nc2ncc3cc4n(c3n2)C2(CCCCC2)C(=O)NN4)cc1 [Compound 3, 4-((3′-oxo-2′,3′-dihydro-1′H-spiro[cyclohexane-1,4′-pyrimido[5′,4′:4,5]pyrrolo[2,1-c][1,2,4]triazin]-7′-yl)amino)benzenesulfonamide]	17
NS(=O)(=O)c1ccc(Nc2ncc3cc4n(c3n2)C2(C=NN4)CCCCC2)cc1 [Compound 4, 4-((1′H-spiro[cyclohexane-1,4′-pyrimido[5′,4′:4,5]pyrrolo[2,1-c][1,2,4]triazin]-7′-yl)amino)benzenesulfonamide]	6
CN1N=CC2(CCCCC2)n2c1cc1cnc(Nc3ccc(S(N)(=O)=O)cc3)nc12 [Compound 5, 4-((1′-methyl-1′H-spiro[cyclohexane-1,4′-pyrimido[5′,4′:4,5]pyrrolo[2,1-c][1,2,4]triazin]-7′-yl)amino)benzenesulfonamide]	30
CN1NC(=O)C2(CCCCC2)n2c1cc1cnc(Nc3ccc(S(N)(=O)=O)cc3)nc12 [Compound 12, 4-((1′-methyl-3′-oxo-2′,3′-dihydro-1′H-spiro[cyclohexane-1,4′-pyrimido[5′,4′:4,5]pyrrolo[2,1-c][1,2,4]triazin]-7′-yl)amino)benzenesulfonamide]	120
NS(=O)(=O)c1ccc(Nc2ncc3cc4n(c3n2)C2(CCCCC2)C(=O)N[C@H]4CF)cc1 [Compound 18, (R)-4-((6′-(fluoromethyl)-8′-oxo-7′,8′-dihydro-6′H-spiro[cyclohexane-1,9′-pyrazino[1′,2′:1,5]pyrrolo[2,3-d]pyrimidin]-2′-yl)amino)benzenesulfonamide]	16
C[C@@H]1NC(=O)C2(CCCCC2)n2c1cc1cnc(Nc3ccc(S(N)(=O)=O)cc3)nc12 [Compound 19, (S)-4-((6′-methyl-8′-oxo-7′,8′-dihydro-6′H-spiro[cyclohexane-1,9′-pyrazino[1′,2′:1,5]pyrrolo[2,3-d]pyrimidin]-2′-yl)amino)benzenesulfonamide]	50
NS(=O)(=O)c1ccc(Nc2ncc3cc4n(c3n2)C2(CCCCC2)C(=O)N[C@@H]4CF)cc1 [Compound 23, (S)-4-((6′-(fluoromethyl)-8′-oxo-7′,8′-dihydro-6′H-spiro[cyclohexane-1,9′-pyrazino[1′2′:1,5]pyrrolo[2,3-d]pyrimidin]-2′-yl)amino)benzenesulfonamide]	12
CC1C(=O)Nc2cc3cnc(Nc4ccc(S(N)(=O)=O)cc4)nc3n2C12CCCCC2 (centres unmarked) [Compound 42, 4-((8′-methyl-7′-oxo-7′,8′-dihydro-6′H-spiro[cyclohexane-1,9′-pyrrolo[1,5-a:2,3-d′]dipyrimidin]-2′-yl)amino)benzenesulfonamide]	2
CC1C(=O)N(C)c2cc3cnc(Nc4ccc(S(N)(=O)=O)cc4)nc3n2C12CCCCC2 (centres unmarked) [Compound 43, 4-((6′,8′-dimethyl-7′-oxo-7′,8′-dihydro-6′H-spiro[cyclohexane-1,9′-pyrrolo[1,5-a:2,3-d′]dipyrimidin]-2′-yl)amino)benzenesulfonamide]	15
CC1=NNc2cc3cnc(Nc4ccc(S(N)(=O)=O)cc4)nc3n2C12CCCCC2 [Compound 45, 4-((3′-methyl-1′H-spiro[cyclohexane-1,4′-pyrimido[5′,4′:4,5]pyrrolo[2,1-c][1,2,4]triazin]-7′-yl)amino)benzenesulfonamide]	48
CC1=NN(C)c2cc3cnc(Nc4ccc(S(N)(=O)=O)cc4)nc3n2C12CCCCC2 [Compound 46, 4-((1′,3′-dimethyl-1′H-spiro[cyclohexane-1,4′-pyrimido[5′,4′:4,5]pyrrolo[2,1-c][1,2,4]triazin]-7′-yl)amino)benzenesulfonamide]	11
CN1CCN(S(=O)(=O)c2ccc(Nc3ncc4cc5n(c4n3)C3(CCCCC3)C(=O)NN5)cc2)CC1 [Compound 49, 7′-((4-((4-methylpiperazin-1-yl)sulfonyl)phenyl)amino)-1′,2′-dihydro-3′H-spiro[cyclohexane-1,4′-pyrimido[5′,4′:4,5]pyrrolo[2,1-c][1,2,4]triazin]-3′-one]	105
CN1CCN(S(=O)(=O)c2ccc(Nc3ncc4cc5n(c4n3)C3(CCCCC3)C(=O)NC5O)cc2)CC1 (centres unmarked) [Compound 50, 6′-hydroxy-2′-((4-((4-methylpiperazin-1-yl)sulfonyl)phenyl)amino)-6′,7′-dihydro-8′H-spiro[cyclohexane-1,9′-pyrazino[1′,2′:1,5]pyrrolo[2,3-d]pyrimidin]-8′-one]	71
CN1CCN(S(=O)(=O)c2ccc(Nc3ncc4cc5n(c4n3)C3(CCCCC3)CC(=O)N5)cc2)CC1 [Compound 51, 2′-((4-((4-methylpiperazin-1-yl)sulfonyl)phenyl)amino)-6′H-spiro[cyclohexane-1,9′-pyrrolo[1,5-a:2,3-d′]dipyrimidin]-7′(8′H)-one]	7
CN1CCN(C(=O)c2ccc(Nc3ncc4cc5n(c4n3)C3(CCCCC3)C(=O)NN5)cc2)CC1 [Compound 52, 7′-((4-(4-methylpiperazine-1-carbonyl)phenyl)amino)-1′,2′-dihydro-3′H-spiro[cyclohexane-1,4′-pyrimido[5′,4′:4,5]pyrrolo[2,1-c][1,2,4]triazin]-3′-one]	84
CN1CCN(C(=O)c2ccc(Nc3ncc4cc5n(c4n3)C3(CCCCC3)C(=O)NC5O)cc2)CC1 (centres unmarked) [Compound 53, 6′-hydroxy-2′-((4-(4-methylpiperazine-1-carbonyl)phenyl)amino)-6′,7′-dihydro-8′H-spiro[cyclohexane-1,9′-pyrazino[1′,2′:1,5]pyrrolo[2,3-d]pyrimidin]-8′-one]	4
CN1CCN(C(=O)c2ccc(Nc3ncc4cc5n(c4n3)C3(CCCCC3)CC(=O)N5)cc2)CC1 [Compound 54, 2′-((4-(4-methylpiperazine-1-carbonyl)phenyl)amino)-6′H-spiro[cyclohexane-1,9′-pyrrolo[1,5-a:2,3-d′]dipyrimidin]-7′(8′H)-one]	3
O=C1NCC2(CCCCC2)n2c1cc1cnc(Nc3ccc(C(=O)N4CCNCC4)cc3)nc12 [Compound 55, 2′-((4-(piperazine-1-carbonyl)phenyl)amino)-7′,8′-dihydro-6′H-spiro[cyclohexane-1,9′-pyrazino[1′,2′:1,5]pyrrolo[2,3-d]pyrimidin]-6′-one]	1
CC1C(=O)Nc2cc3cnc(Nc4ccc(S(=O)(=O)N5CCN(C)CC5)cc4)nc3n2C12CCCCC2 (centres unmarked) [Compound 59, 8′-methyl-2′-((4-((4-methylpiperazin-1-yl)sulfonyl)phenyl)amino)-6′H-spiro[cyclohexane-1,9′-pyrrolo[1,5-a:2,3-d′]dipyrimidin]-7′(8′H)-one]	6
O=C(c1ccc(Nc2ncc3cc4n(c3n2)C2(CCCCC2)C(=O)NN4)cc1)N1CCNCC1 [Compound 61, 7′-((4-(piperazine-1-carbonyl)phenyl)amino)-1′,2′-dihydro-3′H-spiro[cyclohexane-1,4′-pyrimido[5′,4′:4,5]pyrrolo[2,1-c][1,2,4]triazin]-3′-one]	72
CN(C)C(=O)c1ccc(Nc2ncc3cc4n(c3n2)C2(CCCCC2)C(=O)NN4)cc1 [Compound 62, N,N-dimethyl-4-((3′-oxo-2′,3′-dihydro-1′H-spiro[cyclohexane-1,4′-pyrimido[5′,4′:4,5]pyrrolo[2,1-c][1,2,4]triazin]-7′-yl)amino)benzamide]	131
NC(=O)c1ccc(Nc2ncc3cc4n(c3n2)C2(CCCCC2)C(=O)NN4)cc1 [Compound 63, 4-((3′-oxo-2′,3′-dihydro-1′H-spiro[cyclohexane-1,4′-pyrimido[5′,4′:4,5]pyrrolo[2,1-c][1,2,4]triazin]-7′-yl)amino)benzamide]	78
CNC(=O)c1ccc(Nc2ncc3cc4n(c3n2)C2(CCCCC2)C(=O)NN4)cc1 [Compound 64, N-methyl-4-((3′-oxo-2′,3′-dihydro-1′H-spiro[cyclohexane-1,4′-pyrimido[5′,4′:4,5]pyrrolo[2,1-c][1,2,4]triazin]-7′-yl)amino)benzamide]	65
O=C(c1ccc(Nc2ncc3cc4n(c3n2)C2(CCCCC2)C(=O)NN4)cc1)N1CCOCC1 [Compound 74, 7′-((4-(morpholine-4-carbonyl)phenyl)amino)-1′,2′-dihydro-3′H-spiro[cyclohexane-1,4′-pyrimido[5′,4′:4,5]pyrrolo[2,1-c][1,2,4]triazin]-3′-one]	92
